Patent EP0137439A2, “Antitumour agent” (Henkel Kommanditgesellschaft auf Aktien, priority 1983, dated 1985)

Test system: Tumorart P 388 (Leukämie)
Assay: P 388 leukemia survival test in mice, NCI protocol 1200
Type: in vivo, Mäusen
Details: P 388 i.p. in mice; for T/C-Wert: aqueous 1% injection solution, rate of survival prolongation vs untreated animals; for 30 Tage überlebende Tiere (von 6): animals out of 6 alive at 30 days
Description: Epoxid-0: gef. 18,94 %, ber. 18,82 % Die nachfolgenden Versuche wurden durchgeführt nach Testvorschriften des National Cancer Institute Bethesda, Maryland 200014, veröffentlicht in "Cancer Chemotherapy Reports" Part. 3, September 1972, Vol. 3, Nr. 2. Als Wirksubstanz wurde 1,2-Diglycidyl-4-diglycidylamino- urazol des vorstehenden Beispiels 1 verwendet. Die Substanz wurde als wäßrige, 1%ige In jektions lösung unmittelbar vor der Applikation frisch hergestellt.
Bei Mäusen wurde gemäß Protokoll 1200 (S. 91c) die Tumorart P 388 (Leukämie) i.p. mit […] gesetzt. Die mittlere Uberlebensdauer der unbehandelten Tiere wird bestimmt.
In weiteren Versuchsgruppen wird entsprechend vorbehandelten Tieren der Wirkstoff applizi-ert. Es wird eine signifikante Verlängerung der Lebensdauer der behandelten Testtiere gegenüber der mittleren Überlebensdauer der nicht mit dem Wirkstoff behandelten Tiere erzielt. Die Verlängerungsrate T/C in Abhängigkeit von der Dosierung des Wirkstoffes ist in der folgenden Tabelle zusammengestellt: […]

Row | SMILES | T/C-Wert (dose 25 mg/kg) | 30 Tage überlebende Tiere (von 6) (dose 50 mg/kg) | T/C-Wert (dose 50 mg/kg) | 30 Tage überlebende Tiere (von 6) (dose 6,25 mg/kg) | T/C-Wert (dose 6,25 mg/kg) | T/C-Wert (dose 12,5 mg/kg) | 30 Tage überlebende Tiere (von 6) (dose 25 mg/kg)
1 | O=c1n(N(CC2CO2)CC2CO2)c(=O)n(CC2CO2)n1CC1CO1 (stereo not drawn) [1,2-Diglycidyl-4-diglycidyl-aminourazol, 1,2-Diglycidyl-4-diglycidylamino-urazol] | 155 | 6 | >300 | 3 | 291 | 142 | 
2 | O=c1n(CC2CO2)c(=O)n(CC2CO2)n1CC1CO1 (stereo not drawn) [Triglycidylurazol] | 260 | 6 | 300 |  | 180 | 230 | 4
